Where two headings read alike, the source gives them in different places.
What was measured:
Type in all cases: cell-based
HeLa-DsRed cells = settings: for cell morphology (bright field images) vs untreated cells / mean fluorescence intensity of treated cells: [lipidoid]=6.6 μg mL^−1, [(−30)GFP-Cre]=100 nM; for green fluorescence signals (fluorescent images): protein/nanoparticle treated HeLa-DsRed cells
Procedure: (§1) The internalization kinetics and efficiencies of OCholB LNPs were then studied using NR loaded LNPs and HeLa cells. […] Next, all of the NR delivery efficiencies of eight OCholB LNPs were determined after 8 h of exposure. […] Representative fluorescent images of NR/LNPs (NR/75-OCholB, NR/76-OCholB and NR/77-OCholB) treated HeLa cells are shown in FIG. 12D, from which it is easily observed that NR was delivered into the cells and mainly distributed in cytoplasm, by OCholB LNPs. Next, the internalization of negatively charged hydrophilic fluorescent dye, calcein, was studied. […] Next, the use of OCholB LNPs for the intracellular delivery of macromolecular cargo was explored, using fluorescent recombinant (−30)GFP-Cre protein and HeLa-DsRed cells as the model system. […] Delivery efficiency was tested at a range of (−30)GFP-Cre protein concentrations (25, 50 and 100 nM), with a consistent lipid/protein ratio (i.e., delivery with the final lipid concentration of 1.7, 3.3, and 6.6 μg mL^−1 respectively). 33.2%, 43.8% and 74% of GFP positive (GFP^+) cells were recorded for (−30)GFP-Cre/Lpf2k treated cells with the concentration of (−30)GFP-Cre 25 nM, 50 nM and 100 nM, respectively. […] The typical flow cytometry profiles of naked (−30)GFP-Cre protein and (−30)GFP-Cre loaded nanoparticles ((−30)GFP-Cre/75-OCholB, (−30)GFP-Cre/76-OCholB, (−30)GFP-Cre/77-OCholB and (−30)GFP-Cre/Lpf2k) treated HeLa-DsRed cells were shown in and FIG. 12H ([lipidoid]=6.6 μg mL^−1 and [(−30)GFP-Cre]=100 nM), which is consistent with the statistical results shown in FIG. 12G. Furthermore, the representative fluorescent images from the protein and protein/nanoparticle treated HeLa-DsRed cells are also shown in FIG. 12I.

HeLa cells [1] = test: Internalization of Nile red loaded nanoparticles (NR+ cells); settings: 8 h of exposure
Procedure: as §1

HeLa cells [2] = test: GFP mRNA delivery (GFP+ cells); settings: LNP/mRNA=10/1; [mRNA]=0.86 μg mL^−1; 24 h exposure
From the text: Messenger RNA delivery has great potentials for cancer therapy, protein replacement therapy and neurological disorder treatments.^42 The intracellular delivery of mRNA using OCholB LNPs was studied using GFP mRNA and different cell lines (HeLa, B16F10, HEK-293, NIH/3T3 and Jurkat). The weight ratio of LNP/mRNA was optimized at first using HeLa cells. […] The weight ratio of LNP/mRNA=10/1 was then chose for the following mRNA delivery studies. […] Then the intracellular delivery efficiencies of all fully substituted OCholB LNPs were tested against HeLa cells, and Lpf2k and naked GFP mRNA were used as controls (LNP/mRNA=10/1; [mRNA]=0.86 μg mL^−1; 24 h exposure). […] As to the OCholB LNPs, 75-OCholB (62.0% of GFP^+ cells), 76-OCholB (79.8%), 77-OCholB (73.5%), 78-OCholB (67.1%), 80-OCholB (55.6%), 81-OCholB (51.6%) and 304-OCholB (52.1%) are all determined to be effective. Typical fluorescent images of mRNA/LNPs (mRNA/75-OCholB, mRNA/76-OCholB and mRNA/77-OCholB) treated HeLa cells are shown in FIG. 14C. Comparing to untreated HeLa cells, strong green fluorescent signals were recoded from nanoparticles incubated cells, which is consistent with the flow cytometry data as shown in FIG. 14D. Meanwhile, both 87-OCholB (6.1%) and 90-OCholB (2.5%) are found to be inefficient for GFP mRNA delivery into HeLa cells, which is consistent with the internalization studies using NR (FIG. 12C) and (−30)GFP-Cre protein (FIG. 12F) as the fluorescent reporters.

[3] = (−30)GFP-Cre 50 nM, lipid 3.3 μg mL^−1
[4] = (−30)GFP-Cre 100 nM, lipid 6.6 μg mL^−1
[5] = (−30)GFP-Cre 25 nM, lipid 1.7 μg mL^−1

Row | Structure (SMILES) | GFP positive (GFP^+) cells (HeLa-DsRed cells; [3]) [%] | GFP positive (GFP^+) cells (HeLa-DsRed cells; [4]) [%] | cell morphology (bright field images) vs untreated cells (HeLa-DsRed cells) | mean fluorescence intensity of treated cells (HeLa-DsRed cells) | green fluorescence signals (fluorescent images) (HeLa-DsRed cells) | NR^+ cells (HeLa cells [1]) [%] | GFP^+ cells (HeLa cells [2]) [%] | GFP positive (GFP^+) cells (HeLa-DsRed cells; [5]) [%]
1 | CCN(CC)CCN(CCC(=O)OCCSSCCNC(=O)OC1CCC2(C)C(=CCC3C2CCC2(C)C(C(C)CCCC(C)C)CCC32)C1)CCC(=O)OCCSSCCNC(=O)OC1CCC2(C)C(=CCC3C2CCC2(C)C(C(C)CCCC(C)C)CCC32)C1 (stereo not drawn) [Lipidoid 75-OCholB] | 42.3 | 93.1 | no evident morphological change | much more efficient than others | Strong green fluorescence signals | 85.2 | 62.0 | 
2 | CC(C)CCCC(C)C1CCC2C3CC=C4CC(OC(=O)NCCSSCCOC(=O)CCN(CCC(=O)OCCSSCCNC(=O)OC5CCC6(C)C(=CCC7C6CCC6(C)C(C(C)CCCC(C)C)CCC76)C5)CCN5CCCC5)CCC4(C)C3CCC12C (stereo not drawn) [Lipidoid 76-OCholB] | 96.3 | 98.7 | no evident morphological change | much more efficient than others | Strong green fluorescence signals | 65.0 | 79.8 | 66.4
3 | CC(C)CCCC(C)C1CCC2C3CC=C4CC(OC(=O)NCCSSCCOC(=O)CCN(CCC(=O)OCCSSCCNC(=O)OC5CCC6(C)C(=CCC7C6CCC6(C)C(C(C)CCCC(C)C)CCC76)C5)CCC5CCCN5C)CCC4(C)C3CCC12C (stereo not drawn) [Lipidoid 77-OCholB] | 90.7 | 97.9 | no evident morphological change | much more efficient than others | Strong green fluorescence signals | 90.3 | 73.5 | 66.4
4 | CC(C)CCCC(C)C1CCC2C3CC=C4CC(OC(=O)NCCSSCCOC(=O)CCN(CCC(=O)OCCSSCCNC(=O)OC5CCC6(C)C(=CCC7C6CCC6(C)C(C(C)CCCC(C)C)CCC76)C5)CCN(C)C)CCC4(C)C3CCC12C (stereo not drawn) [Lipidoid 78-OCholB] | 46.1 | 90.1 |  |  |  | 92.3 | 67.1 | 
5 | CC(C)CCCC(C)C1CCC2C3CC=C4CC(OC(=O)NCCSSCCOC(=O)CCN(CCCN(C)C)CCC(=O)OCCSSCCNC(=O)OC5CCC6(C)C(=CCC7C6CCC6(C)C(C(C)CCCC(C)C)CCC76)C5)CCC4(C)C3CCC12C (stereo not drawn) [Lipidoid 80-OCholB] | 88.9 | 97.0 |  | much more efficient than others |  | 71.4 | 55.6 | 54.7
6 | CCN(CC)CCCN(CCC(=O)OCCSSCCNC(=O)OC1CCC2(C)C(=CCC3C2CCC2(C)C(C(C)CCCC(C)C)CCC32)C1)CCC(=O)OCCSSCCNC(=O)OC1CCC2(C)C(=CCC3C2CCC2(C)C(C(C)CCCC(C)C)CCC32)C1 (stereo not drawn) [Lipidoid 81-OCholB] | 87.4 | 91.5 |  | much more efficient than others |  | 27.0 | 51.6 | 40.9
7 | CC(C)CCCC(C)C1CCC2C3CC=C4CC(OC(=O)NCCSSCCOC(=O)CCN(C)CCN(CCN(C)CCC(=O)OCCSSCCNC(=O)OC5CCC6(C)C(=CCC7C6CCC6(C)C(C(C)CCCC(C)C)CCC76)C5)CCN(C)CCC(=O)OCCSSCCNC(=O)OC5CCC6(C)C(=CCC7C6CCC6(C)C(C(C)CCCC(C)C)CCC76)C5)CCC4(C)C3CCC12C (stereo not drawn) [Lipidoid 304-OCholB] |  | 48.8 |  |  |  | 22.8 | 52.1 | 
